# PMC11727701 (Drug Design, Development and Therapy, 2025)
# Biological target: NaV1.5 (Homo sapiens, UniProt Q14524)
# Assay: manual whole-cell patch clamp in CHL cells stably expressing SCN5A
# Type: cell-based
# NaV1.5, sequence (Q14524 whole entry): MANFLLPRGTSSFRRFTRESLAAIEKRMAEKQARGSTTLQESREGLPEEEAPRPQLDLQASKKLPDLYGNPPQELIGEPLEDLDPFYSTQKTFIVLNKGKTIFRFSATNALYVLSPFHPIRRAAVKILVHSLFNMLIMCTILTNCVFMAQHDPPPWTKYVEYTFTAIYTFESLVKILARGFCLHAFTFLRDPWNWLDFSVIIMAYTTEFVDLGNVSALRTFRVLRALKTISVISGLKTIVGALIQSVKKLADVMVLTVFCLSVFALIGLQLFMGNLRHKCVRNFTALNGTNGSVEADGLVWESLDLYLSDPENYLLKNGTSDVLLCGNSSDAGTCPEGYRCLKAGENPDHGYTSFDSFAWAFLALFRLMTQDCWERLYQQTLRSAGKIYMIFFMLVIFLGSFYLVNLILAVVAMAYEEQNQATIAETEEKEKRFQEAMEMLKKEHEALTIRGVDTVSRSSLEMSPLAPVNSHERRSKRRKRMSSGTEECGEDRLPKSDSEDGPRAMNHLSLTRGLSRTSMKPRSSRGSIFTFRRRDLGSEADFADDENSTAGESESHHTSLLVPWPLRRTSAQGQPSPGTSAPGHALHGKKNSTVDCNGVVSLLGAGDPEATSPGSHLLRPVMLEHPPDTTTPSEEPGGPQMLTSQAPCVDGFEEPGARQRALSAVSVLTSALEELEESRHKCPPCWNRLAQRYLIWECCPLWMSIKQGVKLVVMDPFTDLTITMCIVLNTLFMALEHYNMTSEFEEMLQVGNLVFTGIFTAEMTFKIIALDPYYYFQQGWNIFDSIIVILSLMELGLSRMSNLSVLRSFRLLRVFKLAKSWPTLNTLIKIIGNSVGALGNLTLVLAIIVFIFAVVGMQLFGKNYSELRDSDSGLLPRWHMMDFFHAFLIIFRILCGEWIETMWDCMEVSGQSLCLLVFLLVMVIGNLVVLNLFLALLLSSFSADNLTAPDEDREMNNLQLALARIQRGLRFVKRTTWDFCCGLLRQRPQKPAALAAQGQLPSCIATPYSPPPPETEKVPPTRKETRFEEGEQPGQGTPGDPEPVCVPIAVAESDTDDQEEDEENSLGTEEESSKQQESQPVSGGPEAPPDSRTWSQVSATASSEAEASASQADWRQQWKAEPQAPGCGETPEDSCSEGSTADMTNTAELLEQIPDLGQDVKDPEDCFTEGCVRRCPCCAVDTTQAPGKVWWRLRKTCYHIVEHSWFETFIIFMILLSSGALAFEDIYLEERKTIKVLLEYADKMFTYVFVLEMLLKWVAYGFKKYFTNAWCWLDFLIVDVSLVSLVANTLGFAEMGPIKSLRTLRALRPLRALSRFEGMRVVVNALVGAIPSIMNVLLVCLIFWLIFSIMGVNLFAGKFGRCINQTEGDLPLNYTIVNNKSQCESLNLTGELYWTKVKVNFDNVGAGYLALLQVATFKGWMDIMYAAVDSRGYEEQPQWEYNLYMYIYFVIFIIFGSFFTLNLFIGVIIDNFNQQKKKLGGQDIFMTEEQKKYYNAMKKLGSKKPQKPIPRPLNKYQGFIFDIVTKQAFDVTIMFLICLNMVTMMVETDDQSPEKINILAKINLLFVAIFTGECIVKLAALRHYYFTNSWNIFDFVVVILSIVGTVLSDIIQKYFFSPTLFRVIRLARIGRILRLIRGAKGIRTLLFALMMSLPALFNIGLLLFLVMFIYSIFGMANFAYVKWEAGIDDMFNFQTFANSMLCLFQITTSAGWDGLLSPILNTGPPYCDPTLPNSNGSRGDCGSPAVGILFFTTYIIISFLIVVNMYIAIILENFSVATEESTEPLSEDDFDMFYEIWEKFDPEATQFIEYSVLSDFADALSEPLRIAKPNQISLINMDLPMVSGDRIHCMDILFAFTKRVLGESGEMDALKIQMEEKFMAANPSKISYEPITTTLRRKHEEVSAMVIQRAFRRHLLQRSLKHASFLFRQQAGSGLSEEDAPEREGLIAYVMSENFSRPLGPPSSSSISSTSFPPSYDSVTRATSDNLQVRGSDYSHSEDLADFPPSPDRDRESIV
smiles,measurement,value
"CCCCCCCCCCCC(=O)O [LA, lauric acid]",IC50,27.4 ± 12.8 µM
